These results are taken from US8440708B2, “Triazole-substituted arylamides as P2X3 and P2X2/3 antagonists” (Roche Palo Alto LLC, priority 2007, dated 2013).

One assay has as its target T1, human P2X2/3 receptor (Homo sapiens, UniProt P56373+Q9UBL9).
T1 construct: expressed in transfected cells; host or cells: CHO-K1
T1 sequence (Q9UBL9 1-471): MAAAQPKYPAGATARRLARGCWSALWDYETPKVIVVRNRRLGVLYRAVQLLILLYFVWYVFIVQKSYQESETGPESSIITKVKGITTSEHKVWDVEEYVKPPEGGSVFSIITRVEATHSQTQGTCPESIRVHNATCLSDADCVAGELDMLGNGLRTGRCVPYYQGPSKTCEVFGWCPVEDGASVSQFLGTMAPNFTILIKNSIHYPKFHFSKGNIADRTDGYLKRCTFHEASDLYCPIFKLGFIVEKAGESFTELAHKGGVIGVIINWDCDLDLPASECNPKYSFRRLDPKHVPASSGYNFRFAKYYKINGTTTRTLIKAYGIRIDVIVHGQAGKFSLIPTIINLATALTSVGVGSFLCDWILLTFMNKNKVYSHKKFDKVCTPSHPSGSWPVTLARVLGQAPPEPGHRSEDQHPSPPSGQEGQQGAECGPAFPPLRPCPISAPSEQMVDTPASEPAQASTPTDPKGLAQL
T1 sequence (P56373 1-397): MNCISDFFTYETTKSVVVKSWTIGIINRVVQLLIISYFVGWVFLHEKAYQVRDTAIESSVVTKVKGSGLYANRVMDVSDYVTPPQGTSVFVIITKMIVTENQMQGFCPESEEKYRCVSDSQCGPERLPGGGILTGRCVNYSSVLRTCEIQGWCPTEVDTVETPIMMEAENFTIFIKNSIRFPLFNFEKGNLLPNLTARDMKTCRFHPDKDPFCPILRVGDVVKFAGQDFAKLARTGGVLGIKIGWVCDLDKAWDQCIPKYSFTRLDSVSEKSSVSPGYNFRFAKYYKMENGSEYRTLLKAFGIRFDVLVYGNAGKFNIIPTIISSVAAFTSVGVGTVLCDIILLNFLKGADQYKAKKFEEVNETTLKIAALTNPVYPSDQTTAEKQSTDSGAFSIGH
As to the kind of experiment: P2X3/P2X2/3 FLIPR (Fluorometric Imaging Plate Reader) Assay, P2X2/3. In kind it is cell-based. Conditions: CHO-K1 cells transfected with human P2X2/3; agonist α,β-meATP 5 μM; Table 1; read-out: P2X2/3 pKi (converted). A digest of the protocol:
(§1)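 Transfected CHO-K1 (rat P2X3; human P2X2/3), Fluo-3 AM 2 μM 1 h 37 °C, buffer HBSS/10 mM HEPES/2 mM CaCl2/2.5 mM probenecid. Cpd 20 min RT, then α,β-meATP 1 μM (P2X3) / 5 μM (P2X2/3). Peak Ca2+ signal, nonlinear regression.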

A further assay concerns the target T2, rat P2X3 receptor (Rattus norvegicus, UniProt P49654).
T2 construct: expressed in transfected cells; host or cells: CHO-K1
T2 sequence (P49654 1-397): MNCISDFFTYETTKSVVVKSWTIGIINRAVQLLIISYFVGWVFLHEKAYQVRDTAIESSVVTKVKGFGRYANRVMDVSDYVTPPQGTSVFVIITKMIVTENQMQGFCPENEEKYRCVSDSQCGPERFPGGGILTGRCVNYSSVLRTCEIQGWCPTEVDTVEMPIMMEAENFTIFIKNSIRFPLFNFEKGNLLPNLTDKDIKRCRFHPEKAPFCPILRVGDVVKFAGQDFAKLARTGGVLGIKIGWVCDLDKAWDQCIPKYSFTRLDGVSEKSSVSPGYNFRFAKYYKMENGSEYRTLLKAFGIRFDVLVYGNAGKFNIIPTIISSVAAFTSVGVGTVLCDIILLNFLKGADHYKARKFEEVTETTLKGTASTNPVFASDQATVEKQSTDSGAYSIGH
As to the kind of experiment: P2X3/P2X2/3 FLIPR (Fluorometric Imaging Plate Reader) Assay, P2X3. It is filed as cell-based. The settings on record: CHO-K1 cells transfected with rat P2X3; agonist α,β-meATP 1 μM; Table 1; read-out: P2X3 pKi (converted). A digest of the protocol: as §1

As for `CC(C)c1ncnn1-c1cc(C(=O)NC2CC2)cc(-c2ccc(Cl)cn2)c1` [Compound 123, 3-(5-Chloro-pyridin-2-yl)-N-cyclopropyl-5-(5-isopropyl-[1,2,4]triazol-1-yl)-benzamide], the Ki at human P2X2/3 receptor is 871 nM; at rat P2X3 receptor, 11 nM.
The like results for `Cc1ccc(-c2cc(C(=O)NCc3cnc(C)cn3)cc(-n3ncnc3-c3ccccc3)c2)nc1` [Compound 143, N-(5-Methyl-pyrazin-2-ylmethyl)-3-(5-methyl-pyridin-2-yl)-5-(5-phenyl-[1,2,4]triazol-1-yl)-benzamide] were, in that order, 1120 nM and 20.9 nM.
On the same counts, the results for `Cc1ccc(-c2cc(C(=O)NC(C)CO)cc(-n3nncc3C(C)C)c2)cc1` (stereo not shown) [Compound 11, 5-(5-Isopropyl-[1,2,3]triazol-1-yl)-4′-methyl-biphenyl-3-carboxylic acid (2-hydroxy-1-methyl-ethyl)-amide] are 257 nM and 5.25 nM.
Regarding `COCCc1ncnn1-c1cc(C(=O)NCc2cnc(C)cn2)cc(-c2ccc(C)cn2)c1` [Compound 147, 3-[5-(2-Methoxy-ethyl)-[1,2,4]triazol-1-yl]-N-(5-methyl-pyrazin-2-ylmethyl)-5-(5-methyl-pyridin-2-yl)-benzamide], the Ki is 2450 nM at human P2X2/3 receptor and 4.57 nM at rat P2X3 receptor.
Turning to `CCn1nncc1-c1cc(C(=O)NC(C)c2cnccn2)cc(-c2ccc(C)cc2)c1` (stereo not shown) [Compound 38, 5-(3-Ethyl-3H-[1,2,3]triazol-4-yl)-4′-methyl-biphenyl-3-carboxylic acid (1-pyrazin-2-yl-ethyl)-amide], the Ki at human P2X2/3 receptor was 550 nM; on rat P2X3 receptor, 9.77 nM.
On the same counts, the results for `Cc1cnc(CNC(=O)c2cc(-c3ccc(Cl)cn3)cc(-n3ncnc3C(F)F)c2)cn1` [Compound 77, 3-(5-Chloro-pyridin-2-yl)-5-(5-difluoromethyl-[1,2,4]triazol-1-yl)-N-(5-methyl-pyrazin-2-ylmethyl)-benzamide] are 724 nM and 9.77 nM.
The like results for `Cc1ccc(-c2cc(C(=O)NC3CC3)cc(-n3ncnc3C(C)(F)F)c2)nc1` [Compound 72, N-Cyclopropyl-3-[5-(1,1-difluoro-ethyl)-[1,2,4]triazol-1-yl]-5-(5-methyl-pyridin-2-yl)-benzamide] were, in that order, 2510 nM and 9.12 nM.
On the same counts, the results for `Cc1ccc(-c2cc(C(=O)N[C@H](C)CN3CCOCC3)cc(-n3ncnc3C(F)(F)F)c2)nc1` [Compound 179, N-((R)-1-Methyl-2-morpholin-4-yl-ethyl)-3-(5-methyl-pyridin-2-yl)-5-(5-trifluoromethyl-[1,2,4]triazol-1-yl)-benzamide] are 339 nM and 24.5 nM.
Take `CCc1ncnn1-c1cc(C(=O)NC(C)c2cnccn2)cc(-c2ccc(Cl)cn2)c1` (stereo not shown) [Compound 106, 3-(5-Chloro-pyridin-2-yl)-5-(5-ethyl-[1,2,4]triazol-1-yl)-N-(1-pyrazin-2-yl-ethyl)-benzamide]: the Ki at human P2X2/3 receptor was 759 nM; at rat P2X3 receptor, 19.1 nM.
`Cc1ccc(-c2cc(C(=O)N[C@@H](C)CO)cc(-n3ncnc3C(C)N(C)C)c2)nc1` (stereo partly drawn) [Compound 140, 3-[5-(1-Dimethylamino-ethyl)-[1,2,4]triazol-1-yl]-N-((S)-2-hydroxy-1-methyl-ethyl)-5-(5-methyl-pyridin-2-yl)-benzamide]: the Ki at human P2X2/3 receptor is 2750 nM; on rat P2X3 receptor it was 20 nM.
The like results for `Cc1ccc(-c2cc(C(=O)N[C@@H](C)CO)cc(-n3ncnc3CC(C)C)c2)nc1` [Compound 131, N-((S)-2-Hydroxy-1-methyl-ethyl)-3-(5-isobutyl-[1,2,4]triazol-1-yl)-5-(5-methyl-pyridin-2-yl)-benzamide] were, in that order, 158 nM and 3.72 nM.
On to `Cc1ccc(-c2cc(C(=O)N[C@@H](C)CO)cc(-n3cnnc3C(C)C)c2)cc1` [Compound 21, 5-(3-Isopropyl-[1,2,4]triazol-4-yl)-4′-methyl-biphenyl-3-carboxylic acid ((S)-2-hydroxy-1-methyl-ethyl)-amide], for which the Ki on human P2X2/3 receptor is 10000 nM; at rat P2X3 receptor it was 977 nM.
The like results for `COC[C@@H](C)NC(=O)c1cc(-c2ccc(C)cc2)cc(-n2ncnc2C(C)C)c1` [Compound 15, 5-(5-Isopropyl-[1,2,4]triazol-1-yl)-4′-methyl-biphenyl-3-carboxylic acid ((R)-2-methoxy-1-methyl-ethyl)-amide] were, in that order, 813 nM and 10.2 nM.
On to `C[C@@H](CO)NC(=O)c1cc(-c2ccc(Cl)cn2)cc(-n2ncnc2C(F)(F)F)c1` [Compound 81, 3-(5-Chloro-pyridin-2-yl)-N-((S)-2-hydroxy-1-methyl-ethyl)-5-(5-trifluoromethyl-[1,2,4]triazol-1-yl)-benzamide], for which the Ki was 3890 nM on human P2X2/3 receptor and 45.7 nM on rat P2X3 receptor.
As to `Cc1ccc(-c2cc(C(=O)NCc3ccc(C)nn3)cc(-n3ncnc3C3CCC3)c2)nc1` [Compound 152, 3-(5-Cyclobutyl-[1,2,4]triazol-1-yl)-N-(6-methyl-pyridazin-3-ylmethyl)-5-(5-methyl-pyridin-2-yl)-benzamide], the Ki on human P2X2/3 receptor was 23.4 nM; at rat P2X3 receptor, 5.75 nM.
On the same counts, the results for `Cc1ccc(-c2cc(C(=O)NC(C)CO)cc(-n3cnnc3C(C)C)c2)cc1` (stereo not shown) [Compound 26, 5-(3-Isopropyl-[1,2,4]triazol-4-yl)-4′-methyl-biphenyl-3-carboxylic acid (2-hydroxy-1-methyl-ethyl)-amide] are 10000 nM and 155 nM.
The like results for `Cc1ccc(-c2cc(C(=O)NC(C)c3cnccn3)cc(-n3nncc3C)c2)cc1` (stereo not shown) [Compound 7, 4′-Methyl-5-(5-methyl-[1,2,3]triazol-1-yl)-biphenyl-3-carboxylic acid (1-pyrazin-2-yl-ethyl)-amide] were, in that order, 191 nM and 3.72 nM.
On the same counts, the results for `Cc1ccc(-c2cc(C(=O)NC(C)c3cnccn3)cc(-n3ncnc3C(C)N(C)C)c2)cc1` (stereo not shown) [Compound 61, 5-[5-(1-Dimethylamino-ethyl)-[1,2,4]triazol-1-yl]-4′-methyl-biphenyl-3-carboxylic acid (1-pyrazin-2-yl-ethyl)-amide] are 51.3 nM and 5.25 nM.
Take `CCc1ncnn1-c1cc(C(=O)NCc2cnc(C)cn2)cc(-c2ccc(C)cn2)c1` [Compound 129, 3-(5-Ethyl-[1,2,4]triazol-1-yl)-N-(5-methyl-pyrazin-2-ylmethyl)-5-(5-methyl-pyridin-2-yl)-benzamide]: the results for the Ki at human P2X2/3 receptor and on rat P2X3 receptor were 79.4 nM and 4.9 nM, respectively.
Regarding `Cc1ccc(-c2cc(C(=O)NC(C)c3cnccn3)cc(-n3ncnc3C(C)(C)C)c2)nc1` (stereo not shown) [Compound 95, 3-(5-tert-Butyl-[1,2,4]triazol-1-yl)-5-(5-methyl-pyridin-2-yl)-N-(1-pyrazin-2-yl-ethyl)-benzamide], the Ki at human P2X2/3 receptor was 117 nM; on rat P2X3 receptor, 5.37 nM.
On the same counts, the results for `CCn1cnnc1-c1cc(C(=O)NC(C)c2cnccn2)cc(-c2ccc(C)cc2)c1` (stereo not shown) [Compound 43, 5-(4-Ethyl-4H-[1,2,4]triazol-3-yl)-4′-methyl-biphenyl-3-carboxylic acid (1-pyrazin-2-yl-ethyl)-amide] are 813 nM and 7.76 nM.
For `Cc1ccc(-c2cc(C(=O)NCc3cnc(C)cn3)cc(-n3ncnc3C3CCC3)c2)nc1` [Compound 86, 3-(5-Cyclobutyl-[1,2,4]triazol-1-yl)-N-(5-methyl-pyrazin-2-ylmethyl)-5-(5-methyl-pyridin-2-yl)-benzamide], the Ki on human P2X2/3 receptor was 33.1 nM; on rat P2X3 receptor, 2.29 nM.
On the same counts, the results for `Cc1ccc(-c2cc(C(=O)N[C@@H](C)CO)cc(-n3ncnc3C(C)C)c2)nc1` [Compound 55, N-(2-Hydroxy-1-methyl-ethyl)-3-(5-isopropyl-[1,2,4]triazol-1-yl)-5-(5-methyl-pyridin-2-yl)-benzamide] are 457 nM and 5.37 nM.
